# Test results reported in patent US20250313569A1, “Pharmaceutical Compounds And Compositions As Modulators Of MAS-Related G-Protein Receptor X2” (Enanta Pharmaceuticals, Inc., priority 2024, published 2025).
# pEC50: −log10 of the molar value.
# Key:
# human MRGPRX2 = target: T1, human MRGPRX2 (Homo sapiens, UniProt Q96LB1); assay: MRGPRX2 IP-1 Gq HTRF assay in HEK293 cells stably expressing human MRGPRX2, Cortistatin-14 at EC75; type: cell-based; conditions: 2 hours at 37° C., cellular IP-1
# T1 construct: expressed in transfected cells; host or cells: HEK293
# T1 sequence (Q96LB1 1-330): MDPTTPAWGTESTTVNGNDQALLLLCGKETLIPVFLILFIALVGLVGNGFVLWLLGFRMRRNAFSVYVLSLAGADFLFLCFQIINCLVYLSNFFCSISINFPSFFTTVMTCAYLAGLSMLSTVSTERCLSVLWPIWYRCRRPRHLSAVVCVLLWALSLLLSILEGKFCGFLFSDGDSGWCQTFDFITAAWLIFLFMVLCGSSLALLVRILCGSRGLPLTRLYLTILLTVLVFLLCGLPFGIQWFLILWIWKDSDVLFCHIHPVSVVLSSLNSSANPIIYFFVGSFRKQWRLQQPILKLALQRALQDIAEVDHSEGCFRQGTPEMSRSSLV
# Experimental: HEK293 cells stably expressing human MRGPRX2 were grown in Dulbecco's Modified Eagle Medium (DMEM) supplemented with 10% fetal bovine serum (FBS), 1% Glutamax, and 1 μg/mL of puromycin. Cells were maintained in a 37° C., 5% CO2 humidified incubator.
# Cells were plated in a 384-well assay plate at a density of 20,000 cells per well overnight. Compounds were solubilized at 10 mM in DMSO and added as a 10-point curve using an ECHO acoustic liquid handler. On the day of the assay, Cortistatin-14 was diluted in assay buffer (provided by IP-One-Gq-HTRF kit purchased from Cisbio, 62IPAPEJ) and added to the assay plate at a final concentration corresponding to the predetermined EC75. Plates were incubated at 37° C. for 2 hours prior to addition of HTRF detection reagents per the manufacturer's instructions. The plates were read on a Perkin Elmer Envision plate reader. The HTRF ratio and cellular IP-1 levels were calculated. XLfit was used to calculate an EC50 value for each compound using a 4-parameter logistic curve fitting model. EC50 ranges are reported as follows: A<100 nM; B 0.1-1 μM; C>1 μM.
# MRGPRX2 LAD2 = target: T2, MRGPRX2 LAD2 (Homo sapiens, UniProt Q96LB1); assay: LAD2 β-hexosaminidase release assay (degranulation), Cortistatin-14 at EC75; type: cell-based; conditions: LAD2 cells; 1 hour compound incubation, Cortistatin-14 at EC75 for 30 minutes; percent degranulation (β-hexosaminidase)
# T2 construct: host or cells: LAD2 human mast cells
# T2 sequence (Q96LB1 1-330): T1 sequence (Q96LB1 1-330)
# Experimental: LAD2 cells obtained from the NIH were cultured in StemPro34 (Gibco) serum-free media supplemented with GlutaMax, penicillin and streptomycin, and 100 ng/mL SCF (Invitrogen). Cells were maintained in a 37° C., 5% CO2 humidified incubator at a concentration of 2-5E5 cells/mL, with hemidepletion once a week.
# One day prior to the assay, cells were starved of SCF at a concentration of 2.3E5 cells/mL. On the day of the assay cells were washed twice in Tyrode's Buffer containing 0.04% BSA (assay buffer) and plated in a 96 well-v-bottom assay plate at 20,000 cells per well in 80 μL of assay buffer. Compounds were solubilized at 10 mM DMSO and added as a 10-fold overconcentrated 8-point curve in assay buffer in a volume of 10 μL using the JANUS liquid handler. Assay plates were incubated for 1 hour at 37° C. Cortistatin-14 was diluted in assay buffer to […] its predetermined EC75 and added to the assay plates in a volume of 10 μL. Assay plates were incubated at 37° C. for 30 minutes. After incubation, cells were pelleted and 50 μL of supernatant from each well was transferred to a 96 well flat bottom plate containing 100 μL of substrate solution (3.5 mg/mL p-Nitrophenyl-N-acetyl-β-D-glucosaminide (Sigma Aldrich) in 40 mM Citrate Buffer (Thermo Fisher)). The remaining cell pellets were lysed with 150 μL of 0.1% Triton-X-100 and mixed thoroughly. 50 μL of lysate was transferred to a 96-well flat bottom plate containing 100 μL of substrate solution. Plates with supernatants and lysates were incubated at 37° C. for 90 minutes prior to addition of 50 μL of 400 mM Glycine buffer (pH 10.7). The plates were read on a Perkin Elmer Envision plate reader at an Abs of 405 nanometers. Percent degranulation was calculated and Xlfit was used to calculate an EC50 value for each compound using a 4-parameter logistic curve fitting model. EC50 ranges are reported as follows: A<100 nM; B 0.1-1 μM; C>1 μM.
pEC50 (human MRGPRX2),pEC50 (MRGPRX2 LAD2),SMILES
> 7.00,> 7.00,"CS(=O)(=O)Nc1cccc(C(=O)N[C@@H]2COC[C@H](Nc3cc(C(F)(F)F)nc4ccc(Cl)cc34)C2)c1 (racemic) [Example 44, N-(cis-5-((6-chloro-2-(trifluoromethyl)quinolin-4-yl)amino)tetrahydro-2H-pyran-3-yl)-3-(methylsulfonamido)benzamide]"
6.00 to 7.00,> 7.00,CS(=O)(=O)Nc1cccc(C(=O)N[C@H]2C[C@@H](Nc3cc(C(F)(F)F)nc4ccc(Cl)cc34)CN(C(=O)c3ccccc3)C2)c1 [Example 1]
> 7.00,> 7.00,CC(=O)N1C[C@@H](NC(=O)c2cccc(NS(C)(=O)=O)c2)C[C@@H](Nc2cc(C(F)(F)F)nc3ccc(Cl)cc23)C1 [Example 2]
6.00 to 7.00,> 7.00,CS(=O)(=O)Nc1cccc(C(=O)N[C@H]2C[C@@H](Nc3cc(C(F)(F)F)nc4ccc(Cl)cc34)CN(S(C)(=O)=O)C2)c1 [Example 3]
6.00 to 7.00,> 7.00,CS(=O)(=O)Nc1cccc(C(=O)N[C@H]2C[C@@H](Nc3cc(C(F)(F)F)nc4ccc(Cl)cc34)CN(S(=O)(=O)c3ccccc3)C2)c1 [Example 4]
> 7.00,> 7.00,COC(=O)N1C[C@@H](NC(=O)c2cccc(NS(C)(=O)=O)c2)C[C@@H](Nc2cc(C(F)(F)F)nc3ccc(Cl)cc23)C1 [Example 5]
6.00 to 7.00,> 7.00,CS(=O)(=O)Nc1cccc(C(=O)N[C@H]2C[C@@H](Nc3cc(C(F)(F)F)nc4ccc(Cl)cc34)CN(C(=O)C(F)(F)F)C2)c1 [Example 8]
6.00 to 7.00,6.00 to 7.00,CNC(=O)N1C[C@@H](NC(=O)c2cccc(NS(C)(=O)=O)c2)C[C@@H](Nc2cc(C(F)(F)F)nc3ccc(Cl)cc23)C1 [Example 9]
6.00 to 7.00,> 7.00,CN(C)C(=O)N1C[C@@H](NC(=O)c2cccc(NS(C)(=O)=O)c2)C[C@@H](Nc2cc(C(F)(F)F)nc3ccc(Cl)cc23)C1 [Example 10]
> 7.00,> 7.00,CC(=O)N1C[C@@H](NC(=O)c2cccc(C#N)c2)C[C@@H](Nc2cc(C(F)(F)F)nc3ccc(Cl)cc23)C1 [Example 24]
> 7.00,> 7.00,COc1ccc(C(=O)N[C@H]2C[C@@H](Nc3cc(C(F)(F)F)nc4ccc(Cl)cc34)CN(C(C)=O)C2)cc1 [Example 25]
> 7.00,> 7.00,CC(=O)N1C[C@@H](NC(=O)c2cnn(CC(F)(F)F)c2)C[C@@H](Nc2cc(C(F)(F)F)nc3ccc(Cl)cc23)C1 [Example 29]
> 7.00,> 7.00,CC(=O)N1C[C@@H](NC(=O)c2cnn(C)c2)C[C@@H](Nc2cc(C(F)(F)F)nc3ccc(Cl)cc23)C1 [Example 30]
6.00 to 7.00,6.00 to 7.00,CC(=O)N1C[C@@H](NC(=O)c2cnn(C3CC3)c2)C[C@@H](Nc2cc(C(F)(F)F)nc3ccc(Cl)cc23)C1 [Example 32]
6.00 to 7.00,> 7.00,CC(=O)N1C[C@@H](NC(=O)c2cccc(C(C)(C)O)c2)C[C@@H](Nc2cc(C(F)(F)F)nc3ccc(Cl)cc23)C1 [Example 41]
> 7.00,> 7.00,CC(=O)N1C[C@@H](NC(=O)c2cccc(C(F)F)c2)C[C@@H](Nc2cc(C(F)(F)F)nc3ccc(Cl)cc23)C1 [Example 42]
6.00 to 7.00,> 7.00,CC(=O)N1C[C@@H](NC(=O)c2cccc(NS(=O)(=O)C(F)(F)F)c2)C[C@@H](Nc2cc(C(F)(F)F)nc3ccc(Cl)cc23)C1 [Example 43]
